# Entries after “also recorded” stand apart in the source; their conditions may differ. Like-named read-outs stand apart in the source and are kept apart here. Positions of bridges follow the written chain, without caps; N, C: chain ends. Non-standard residues stand in square brackets, D forms with d. Residues, ends and D or L forms follow the SMILES beside them.
# Assays:
# [1] = system: female Sprague-Dawley CD rats; assay: GI transit delay induced by repeated methadone administration in rats; type: in vivo, rat; details: SP-333 oral daily
# Experimental: The ability of SP-333 to alleviate GI transit delay induced by repeated methadone administration was also evaluated in the similar manner. Female Sprague-Dawley CD rats 7 to 8 weeks of age (n=7/group) received via IP injection 16 doses of methadone (once daily; 7 doses @ 5 mg/kg and 9 doses @ 2.5 mg/kg). Ten minutes following each methadone dose, each group received an oral gavage of vehicle, 2.5, and 5 mg/kg of SP-333. At the end of the dosing regimen, animals were fasted overnight and GI transit was evaluated as described above.
# [2] = randomized 4-week study in OIC: SP-333 plasma levels; type: in vivo, human; details: for level at 0.5 h / level at 1 h: human, plasma, 6 mg, SP-333: 6 mg, read-out: SP-333 concentration; for level at 0.5 h: time 30; for level at 1 h: time 60
# Text: (§1) To assess the safety and tolerability of SP-333. To evaluate the pharmacodynamic effects of SP-333. To evaluate the pharmacokinetic properties of SP-333.
# [3] = system: patients with symptoms of OIC treated for non-malignant chronic pain with opioid therapy; assay: randomized 4-week placebo-controlled dose-ranging study in OIC: safety; type: in vivo, human; details: for All AEs: preliminary safety top line
# Text: A Randomized, 4-Week, Double-Blind, Placebo-Controlled, Dose-Ranging Study to Assess the Safety and Efficacy of Sp-333 for the Treatment of Opioid-Induced Constipation (OIC) in Patients with Non-Malignant Chronic Pain Receiving Opioid Therapy
# as §1
# The primary efficacy endpoint was to determine the mean change from baseline in the number of […] (SBMs) during Week 4 of the Treatment Period. Safety was assessed by analysis of the frequency of treatment-emergent adverse events (TEAEs), adverse events leading to withdrawal, and serious adverse events (SAEs).
# [4] = system: female Sprague-Dawley rats; assay: methadone-induced delay in rat GI transit (charcoal meal); type: in vivo; details: 2.5 mg/kg methadone IP
# Experimental: Animals: All study procedures were conducted under a study outline approved by the Institutional Animal Care and Use Committee of MB Research Labs (Spinnerstown, Pa.) or Lampire Biological Laboratories (Pipersville, Pa.). Seven to eight week old female Sprague-Dawley rats [Crl:CD(SD)], weighing between ˜180-210 grams, were obtained from Charles River Laboratories and allowed to acclimate for a week. Animals were maintained on a 12 hour light-dark cycle. For intestinal tissue collection and evaluation of GI transit, rats were fasted for at least 18 hours before the experiment, with free access to water.
# The ability of opioids to delay GI transit in rats was tested by either administering 0 (vehicle) 0.25, 1 and 2.5 mg/kg of morphine or 0 (vehicle), 0.25, 2.5 and 5 mg/kg of methadone (1.5 ml/kg dose volume) by IP injection. Water served as vehicle control. Ten minutes later, a 2 mL charcoal meal consisting of 10% activated charcoal (Sigma-Aldrich, St. Louis, Mo.) and 10% gum Arabic (Sigma-Aldrich, St. Louis, Mo.) in water was administered via oral gavage. Rats were euthanized 10 min after the charcoal meal via IP injection of 150 mg/kg Beuthanasia-D solution (sodium pentobarbital, 390 mg/mL). The small intestine was removed and the total length from the pyloric sphincter to the ileocecal junction was recorded, as well as the distance traveled by the leading edge of the charcoal. Intestinal transit was determined by calculating the ratio (expressed as a percentage) of the distance between the pyloric sphincter and the leading edge of the charcoal to the distance between the pyloric sphincter and the ileocecal junction.
# To evaluate the ability of SP-333 to reverse methadone induced delayed GI transit, animals were administered 2.5 mg/kg of methadone by IP injection. Ten minutes later, an oral gavage of 0 (vehicle), 0.1, 0.5, 2.5, 5 and 50 mg/kg of SP-333 (1.5 ml/kg dose volume) was administered followed immediately by a 2 mL oral gavage of the charcoal meal. Ten minutes after the charcoal meal, animals were euthanized and intestinal transit was calculated as described above.
# [5] = system: female Sprague-Dawley CD rats; assay: methadone-induced constipation in rats (fecal output); type: in vivo, rat; details: methadone 2.5 mg/kg IP daily 9 days; SP-333 2.5, 5.0 and 10 mg/kg oral daily
# [6] = system: opioid naïve animals (rats); assay: GI transit after single oral gavage dose in opioid naïve rats; type: in vivo, rat
# [7] = system: female Sprague-Dawley CD rats; assay: methadone-induced constipation in rats (fecal output); type: in vivo, rat
# Experimental: To identify the methadone dose that induces constipation in rats, female Sprague-Dawley CD rats 7 to 8 weeks of age (n=6/group) were administered 0 (vehicle), 2.5, 5, and 7.5 mg/kg of methadone (1.5 ml/kg dose volume) by IP injection once a day for 5 days. Fecal pellets were collected at 4 h intervals during the light cycle and average number of pellets was recorded for each group during the course of the study following daily dose administrations of methadone.
# To evaluate the ability of SP-333 to relieve methadone-induced constipation, female Sprague-Dawley CD rats 7 to 8 weeks of age (n=7/group) were administered 5 mg/kg of methadone (or vehicle) each day for 7 days via IP injection to induce constipation. Ten minutes following the IP dose each day, an oral gavage of 2.5, and 5 mg/kg of SP-333 or vehicle (buffer) was administered. Fecal pellets were collected at 4 h intervals during the light cycle and average number of pellets recorded for each group during the course of the study following daily administration of vehicle, methadone or combination of methadone and SP-333.
# [8] = 30 and/or 60 minute time points
structure (smiles),measurement,setting,value
"CC(C)C[C@@H]1NC(=O)[C@H](CCC(=O)O)NC(=O)[C@@H](NC(=O)[C@H](CCC(=O)O)NC(=O)[C@H](CC(=O)O)NC(=O)[C@H](N)CC(N)=O)CSSC[C@@H]2NC(=O)[C@H](C)NC(=O)[C@H](C(C)C)NC(=O)[C@H](CC(N)=O)NC(=O)[C@H](C(C)C)NC(=O)[C@H](CSSC[C@@H](C(=O)N[C@H](CC(C)C)C(=O)O)NC(=O)CNC(=O)[C@H]([C@@H](C)O)NC2=O)NC1=O [SP-333, dAsn^1-Asp^2-Glu^3-Cys^4-Glu^5-Leu^6-Cys^7-Val^8-Asn^9-Val^10-Ala^11-Cys^12-Thr^13-Gly^14-Cys^15-dLeu^16] (H-[dN]DECELCVNVACTGC[dL]-OH; disulfide 4-12, 7-15)",GI-transit delay caused by repeated methadone dosing,"[1]; 16 daily methadone doses (7 at 5 mg/kg, 9 at 2.5 mg/kg)",normalized GI transit; also recorded: relieved the GI-transit delay; also recorded: relieves methadone-induced GI transit delay; also recorded: statistically significant improvement in GI transit delay
same,GI-transit delay caused by repeated methadone dosing,[1]; methadone 2.5 mg/kg IP daily 9 days,relieved the GI-transit delay
same,maximum plasma level value observed,[2]; [8],2.71 ng/mL
same,number of patients in whom SP-333 plasma levels were observed,[2]; [8],4 patients
same,level at 0.5 h,"[2]; subject 006-004, visit week 1",2.71 ng/mL
same,level at 1 h,"[2]; subject 006-004, visit week 1",1.77 ng/mL
same,level at 0.5 h,"[2]; subject 007-013, visit week 1",1.38 ng/mL
same,level at 0.5 h,"[2]; subject 026-016, visit week 4",1.88 ng/mL
same,level at 1 h,"[2]; subject 026-016, visit week 4",1.5 ng/mL
same,level at 0.5 h,"[2]; subject 047-002, visit week 4",1.21 ng/mL
same,Diarrhea,[3]; 1 mg (n 74),3 (4%) n (%)
same,Diarrhea Drop,[3]; 1 mg (n 74),0 (0%) n (%)
same,Drops for AE,[3]; 1 mg (n 74),1 (1.4%) n (%)
same,All AEs,[3]; 1 mg (n 74),19 (25.7%) n (%)
same,patients with TEAE leading to study treatment discontinuation,[3]; 1 mg group,1.4%
same,Diarrhea,[3]; 3 mg (n 70),4 (5.4%) n (%)
same,Diarrhea Drop,[3]; 3 mg (n 70),0 (0%) n (%)
same,Drops for AE,[3]; 3 mg (n 70),2 (2.9%) n (%)
same,serious adverse events: Chest Pain,[3]; 3 mg (n 70),1 (1.4%) n (%)
same,All AEs,[3]; 3 mg (n 70),16 (22.9%) n (%)
same,patients with TEAE leading to study treatment discontinuation,[3]; 3 mg group,2.9%
same,Diarrhea,[3]; 6 mg (n 72),7 (9.7%) n (%)
same,Diarrhea Drop,[3]; 6 mg (n 72),2 (2.9%) n (%)
same,Drops for AE,[3]; 6 mg (n 72),5 (6.9%) n (%)
same,serious adverse events: Death (metastatic HCC),[3]; 6 mg (n 72),1 (1.4%) n (%)
same,All AEs,[3]; 6 mg (n 72),23 (31.9%) n (%)
same,patients with TEAE leading to study treatment discontinuation,[3]; 6 mg group,6.9%
same,percentage of patients experiencing at least 1 TEAE,[3]; SP-333 1 mg (placebo 27.4%),25.7%
same,percentage of patients experiencing at least 1 TEAE,[3]; SP-333 3 mg (placebo 27.4%),22.9%
same,percentage of patients experiencing at least 1 TEAE,[3]; SP-333 6 mg (placebo 27.4%),31.9%
same,most frequently reported TEAE,[3]; in vivo,diarrhea
same,GI transit in methadone-treated rats,[4]; then SP-333 0.5 mg/kg oral gavage,40%
same,GI transit in methadone-treated rats,[4]; then SP-333 2.5 mg/kg oral gavage,39%
same,GI transit in methadone-treated rats,[4]; then SP-333 5 mg/kg oral gavage,44%
same,GI transit in methadone-treated rats,[4]; then SP-333 50 mg/kg oral gavage,52%
same,average number of pellets compared to the methadone dosed group,[5],higher compared to the methadone dosed group
same,increase in small intestinal (GI) transit compared to vehicle controls,[6]; 0.05 mg/kg single oral gavage,5.6%
same,increase in small intestinal (GI) transit compared to vehicle controls,[6]; 0.5 mg/kg single oral gavage,13%
same,increase in small intestinal (GI) transit compared to vehicle controls,[6]; 5 mg/kg single oral gavage,23%
same,increase in Isc,rat jejunum tissue; 0.01-10 μM at mucosal surface of rat jejunum,concentration-dependent increase in Isc approaching saturation at 10 μM
same,stimulation of Isc,"rat jejunum tissue; treatment from the basolateral chamber, rat jejunum tissues",did not stimulate Isc
same,pellet count compared to the methadone dosed group,"[7]; SP-333 2.5 mg/kg oral daily 10 min after methadone (5 mg/kg 7 days, then 2.5 mg/kg days 8-16)",threefold increase; also recorded: significantly relieved methadone-induced constipation
same,average number of pellets / fecal output compared to the methadone dosed group,"[7]; SP-333 2.5 and 5 mg/kg oral daily after methadone (5 mg/kg 7 days, then 2.5 mg/kg days 8-16)",partially restored fecal output; also recorded: higher compared to the methadone dosed group

# From patent US20160367622A1, “AGONISTS OF GUANYLATE CYCLASE USEFUL FOR THE TREATMENT OF OPIOID INDUCED DYSFUNCTIONS” (priority 2013, published 2016)
